Results on four compounds are retold here after patent US20100267752A1, “3-HYDROQUINAZOLIN-4-ONE DERIVATIVES FOR USE AS STEAROYL CoA DESATURASE INHIBITORS” (Gilead Palo Alto, Inc., priority 2008, published 2010).

This assay has as its target T1, SCD (stearoyl-CoA desaturase) (Rattus norvegicus, UniProt P07308).
T1 construct: The rat liver microsomes were collected according to the procedure described in Ozols (1990) Methods Enzm, 182:225; from tissue; host or cells: liver microsomes of male Sprague Dawley rats, SCD induced by a carbohydrate-rich diet
T1 sequence (P07308 1-358): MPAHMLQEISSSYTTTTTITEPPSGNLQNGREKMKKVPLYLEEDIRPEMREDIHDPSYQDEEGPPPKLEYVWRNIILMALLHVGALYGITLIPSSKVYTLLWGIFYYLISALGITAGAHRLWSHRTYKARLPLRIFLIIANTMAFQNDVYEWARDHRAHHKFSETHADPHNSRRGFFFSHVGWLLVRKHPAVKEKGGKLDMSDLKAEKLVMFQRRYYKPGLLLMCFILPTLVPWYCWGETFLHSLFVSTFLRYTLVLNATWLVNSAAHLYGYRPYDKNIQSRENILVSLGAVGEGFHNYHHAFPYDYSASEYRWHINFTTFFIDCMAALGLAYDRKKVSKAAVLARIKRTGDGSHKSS
In words: SCD assay with rat liver microsomes, [3H]stearoyl CoA (adapted from Talamo and Bloch). It counts as biochemical. As to conditions: rat liver microsomes 0.2 mg/ml final, 30 min preincubation, 45 min reaction at room temperature. The text has this: The identification of compounds of the invention as SCD inhibitors was readily accomplished using the SCD enzyme and microsomal assay procedure described in Talamo and Bloch (1969) Analytical Biochemistry 29:300-304.
The rat liver microsomes were collected according to the procedure described in Ozols (1990) Methods Enzm, 182:225.
Male Sprague Dawley Rats were placed on regimented fasting protocol for one week to stimulate SCD enzymatic activity. 48-hour periods were alternated between feeding and fasting to induce and down-regulate SCD activity with SCD activity being induced via carbohydrate rich diet prior to liver perfusion and collection.
The rats were anesthetized with Isoflurane inhalation anesthetic, the liver perfused with cold phosphate buffered saline (PBS), weighed, and chilled in cold homogenization buffer (250 mM sucrose, […] Tris, 1 mM EDTA, pH 7.6.
The livers were finely minced and placed in homogenization tube. 40 mL of homogenization buffer was added to the homogenization tube and the liver homogenized and centrifuged in a pre-chilled SLA-600 TC at 800G rotor for 10 min at 4° C.
Following centrifugation, the supernatant was collected and the pellet removed and discarded. The supernatant was centrifuge at 10,000 G for 35 minutes. Following centrifugation, the supernatant was collect and the pellet discarded. The supernatant was then centrifuged in a pre-chilled 45-Ti rotor at 130,000 G (41,000 RPM) for 90 minutes at 4° C.
The supernatant was then aspirated off and the collected microsomal pellet washed in 25 mL of Glycerol PBS (1×PBS 7.4, 20% Glycerol) and resuspended in 4-5 volumes of Glycerol PBS.
The protein concentration of the microsomal preparation was determined by BCA assay (Pierce) and the microsomes were aliquoted and stored at −80° C.
SCD was determined in the desaturase assay buffer. This assay buffer contained 0.1 M Tris buffer, pH 7.2, 2 mM NADH, 4.8 mM ATP, 0.5 mM CoA, 4.8 mM MgCl2, and 0.1% BSA.
The Procedure for the SCD Assay (Adapted from Talamo and Bloch (1969) Analytical Biochemistry 29:300-304)
1 μl of each compound of Formula I was added to an assay plate by a low volume (0.5-10 μL) multichannel pipette. A DMSO control was also prepared. The microsomes were quickly thawed and added to assay buffer so that a concentration of 0.4 mg/ml was achieved (0.2 mg/ml assay final). 50 μl of the microsome suspension in assay buffer was then added into each well in the compound assay plate, the plate was covered, and the microsomes preincubated with the compounds for 30 minutes on the orbital shaker, 50-75 rpm, at room temperature. […]
(Liver microsomes are vesicles of endoplasmic reticulum, rich in cytochrome P450 enzymes.)

Regarding `O=C(CO)Nc1ccc2nc(Cc3ccc(Cl)c(Cl)c3)[nH]c(=O)c2c1` [IV., N-(2-(3,4-dichlorobenzyl)-4-oxo-3,4-dihydroquinazolin-6-yl)-2-hydroxyacetamide], the concentration for half-maximal inhibition (IC50) (in general, the point on the concentration scale where inhibition reaches its midpoint) was 930 nM.
The figure for `O=C(Nc1ccc2nc(Cc3ccc(Cl)c(Cl)c3)[nH]c(=O)c2c1)OCc1ccccc1` [II., benzyl 2-(3,4-dichlorobenzyl)-4-oxo-3,4-dihydroquinazolin-6-ylcarbamate] is 1200 nM; for `CC(=O)OCC(=O)Nc1ccc2nc(Cc3ccc(Cl)c(Cl)c3)[nH]c(=O)c2c1` [III., 2-(2-(3,4-dichlorobenzyl)-4-oxo-3,4-dihydroquinazolin-6-ylamino)-2-oxoethyl acetate] it is 750 nM; for `O=C(Nc1ccc2c(=O)[nH]c(Cc3ccc(Cl)c(Cl)c3)nc2c1)OCc1ccccc1` [I., benzyl 2-(3,4-dichlorobenzyl)-4-oxo-3,4-dihydroquinazolin-7-ylcarbamate] it is 2500 nM.
